Measured values: US20250333509A1, “METHODS FOR TREATING CANCER, OR VON-HIPPEL LINDAU DISEASE USING A COMBINATION OF A TIGIT ANTAGONIST, A PD-1 ANTAGONIST, AND A HIF-2-ALPHA INHIBITOR” (MERCK SHARP & DOHME LLC, priority 2022, published 2025)

What was measured:
CT26 tumors = assay: CT26 mouse syngeneic tumor model: tumor growth inhibition and tumor regressions; assay type: in vivo; details: CT26 tumors in female BALB/cAnn mice, 10 per group, anti-PD-1 5 mg/kg ip every 5 days, anti-TIGIT 10 mg/kg ip every 5 days, belzutifan 3 mg/kg orally twice daily; for Tumor growth inhibition (TGI) % at Day 16: Day 16 when control animals exited study; for Number of complete tumor regressions (CRs) at end of study / Number of partial tumor regressions (PRs) at end of study: end of study (Day 43)
Excerpt: The present Example describes preclinical data using a TIGIT antagonist and a PD-1 antagonist in combination with belzutifan, using mouse syngeneic models.
Prior to treatment initiation, female BALB/cAnn mice aged 7 weeks weighing between 18 to 21 grams were anesthetized and injected subcutaneously into the rear flank with 0.3×10^6 log-phase sub-confluent CT26 cells. Mice were pair-matched into treatment groups consisting of 10 mice per group when the mean tumor volume of inoculated CT26 tumors reached approximately 150 mm^3.
Treatment groups consisted of: • 1) Isotype mouse IgG1 (mIgG1) antibody+Isotype mouse IgG2a (mIgG2a) antibody+0.5% methylcellulose (vehicle); • 2) anti-PD-1 mIgG1 antibody+Isotype mIgG2a antibody+vehicle; • 3) anti-TIGIT mIgG2a antibody+Isotype mIgG1 antibody+vehicle; • 4) Isotype mIgG1 antibody+Isotype mIgG2a antibody+belzutifan; • 5) anti-PD-1 mIgG1 antibody+anti-TIGIT mIgG2a antibody+vehicle; • 6) anti-PD-1 mIgG1 antibody+Isotype mIgG2a antibody+belzutifan; • 7) Isotype mIgG1 antibody+anti-TIGIT mIgG2a antibody+belzutifan; and • 8) anti-PD-1 mIgG1 antibody+anti-TIGIT mIgG2a antibody+belzutifan.
Isotype mIgG1 and anti-PD-1 antibodies were dosed intraperitoneally every 5 days at 5 mg/kg body weight. Isotype mIgG2a and anti-TIGIT antibodies were dosed intraperitoneally every 5 days at 10 mg/kg body weight. Belzutifan was dosed orally twice daily at 3 mg/kg body weight. Start of treatments was considered Day 0 and dosing based on schedules continued as described until Day 43. Caliper measurements of tumors and body weights were captured twice weekly. Statistical analyses were performed by 2-sided student t-test of final 2 groups at Day 43 when study ended.

[1] = AE profile of belzutifan; cited from earlier work
[2] = tested on: RCC associated with VHL disease, CNS hemangioblastomas, pancreatic neuroendocrine tumors; details: cited from earlier work
[3] = patients with RCC associated with VHL disease who received belzutifan

**Q.** With `CS(=O)(=O)c1ccc(Oc2cc(F)cc(C#N)c2)c2c1[C@H](O)[C@H](F)[C@@H]2F` [belzutifan, 3-[(1S,2S,3R)-2,3-Difluoro-1-hydroxy-7-methylsulfonyl-indan-4-yl]oxy-5-fluoro-benzonitrile] as the molecule, how does the “Tumor growth inhibition (TGI) % at Day 16” value (CT26 tumors) read?
**A.** 5.8%

**Q.** And the “Number of complete tumor regressions (CRs) at end of study” value (from here on “Number of complete tumor regressions”) (CT26 tumors)?
**A.** 0 CRs, 0 PRs

**Q.** And the “Number of partial tumor regressions (PRs) at end of study” value (“Number of partial tumor regressions” for short) (CT26 tumors)?
**A.** 0 CRs, 0 PRs

**Q.** And the “adverse events associated with treatment” value [1]?
**A.** anemia and hypoxia have been associated with belzutifan treatment

**Q.** And the “patients with a response after treatment” value ([2]; patients with CNS hemangioblastomas)?
**A.** 30%

**Q.** And the “patients with a confirmed objective response” value [2, 3]?
**A.** 49%

**Q.** And the “reduction in renal tumor size” value [2, 3]?
**A.** most patients had a reduction in renal tumor size

**Q.** What about the “patients who responded after treatment” value ([2]; patients with pancreatic neuroendocrine tumors) of the same molecule?
**A.** 91%

B1: Anti-PD-1 (antibody)
heavy: EVQLVESGGGLVQPGGSLKLSCAASGFTFSNSGLAWVRQAPEKGLEWVATITYNGTSTYYRDSVKGRFTISRDNAKNTLYLQMSSLRSEDTATYYCARWVPGSGNFDYWGQGTLVTVSSAKTTPPSVYPLAPGSAAQTNSMVTLGCLVKGYFPEPVTVTWNSGSLSSGVHTFPAVLQSDLYTLSSSVTVPSSTWPSETVTCNVAHPASSTKVDKKIVPRDCGCKPCICTVPEVSSVFIFPPKPKDVLTITLTPKVTCVVVAISKDDPEVQFSWFVDDVEVHTAQTQPREEQFNSTFRSVSELPIMHQDWLNGKEFKCRVNSAAFPAPIEKTISKTKGRPKAPQVYTIPPPKEQMAKDKVSLTCMITDFFPEDITVEWQWNGQPAENYKNTQPIMDTDGSYFVYSKLNVQKSNWEAGNTFTCSVLHEGLHNHHTEKSLSHSPGK
light: DIVLTQSPASLAVSLGQRATISCRASQSVTISRYTLMHWYQQKPGQPPKLLIYRASNLASGIPARFSGSGSGTDFTLNIHPVEEDDAATYYCQQSRESPWTFGGGTKLEIKRADAAPTVSIFPPSSEQLTSGGASVVCFLNNFYPKDINVKWKIDGSERQNGVLNSWTDQDSKDSTYSMSSTLTLTKDEYERHNSYTCEATHKTSTSPIVKSFNRNEC
**Q.** With B1 as the molecule, how does the “Tumor growth inhibition (TGI) % at Day 16” value (CT26 tumors) read?
**A.** 4.8%

**Q.** What about the “Number of complete tumor regressions” value (CT26 tumors) of the same molecule?
**A.** 0

**Q.** And the “Number of partial tumor regressions” value (CT26 tumors)?
**A.** 1

B2: Anti-TIGIT (antibody)
heavy: QVQLMESGPGLVQPSQTLSLTCTVSGFPLTSYTVHWVRQPPGKGLEWIGAIWSSGSTDYNSALKSRLNINRDSSKSQVFLKMNSLQTEDTAIYFCTKSGWAFFDYWGQGVMVTVSSAKTTAPSVYPLAPVCGDTTGSSVTLGCLVKGYFPEPVTLTWNSGSLSSGVHTFPAVLQSDLYTLSSSVTVTSSTWPSQSITCNVAHPASSTKVDKKIEPRGPTIKPCPPCKCPAPNLLGGPSVFIFPPKIKDVLMISLSPIVTCVVVDVSEDDPDVQISWFVNNVEVHTAQTQTHREDYNSTLRVVSALPIQHQDWMSGKEFKCKVNNKDLPAPIERTISKPKGSVRAPQVYVLPPPEEEMTKKQVTLTCMVTDFMPEDIYVEWTNNGKTELNYKNTEPVLDSDGSYFMYSKLRVEKKNWVERNSYSCSVVHEGLHNHHTTKSFSRTPGK
light: DIQMTQSPSLLSASVGDRVTLNCIASQNIYKSLAWYQLKLGEAPKLLIYNANSLQAGIPSRFSGSGSGTDFALTISGLQPEDVATYFCQQYSGGYTFGAGTKLELKRADAAPTVSIFPPSSEQLTSGGASVVCFLNNFYPKDINVKWKIDGSERQNGVLNSWTDQDSKDSTYSMSSTLTLTKDEYERHNSYTCEATHKTSTSPIVKSFNRNEC
**Q.** For B2, which “Tumor growth inhibition (TGI) % at Day 16” value (CT26 tumors) is on record?
**A.** 47.4%

**Q.** And the “Number of complete tumor regressions” value (CT26 tumors)?
**A.** 0 CRs, 0 PRs

**Q.** And the “Number of partial tumor regressions” value (CT26 tumors)?
**A.** 0 CRs, 0 PRs
